From ChEMBL document CHEMBL1833852, “Design, synthesis, and X-ray crystallographic analysis of a novel class of HIV-1 protease inhibitors” (J Med Chem, 2011)
The source made the active and inactive calls. The rule behind the calls is not given here.

These molecules were tested against Protease (Human immunodeficiency virus 1) (UniProt Q9YQ12) (assay: (§1) Inhibition of Human immunodeficiency virus 1 protease activity after 60 mins by HPLC analysis).
Sequence of Protease (Human immunodeficiency virus 1) (Q9YQ12 as listed by the source): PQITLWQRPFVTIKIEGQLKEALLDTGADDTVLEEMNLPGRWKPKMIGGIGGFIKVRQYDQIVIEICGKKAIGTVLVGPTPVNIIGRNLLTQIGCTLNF

| inhibition | Structure (SMILES) |
| --- | --- |
| inactive | O=C1N[C@@H](Cc2ccccc2)[C@@H](CN2CCCc3ccccc3S2(=O)=O)O1 |

The molecules below were run against Protease (Human immunodeficiency virus 1, UniProt Q9YQ12) (assay: as §1).
Sequence of Protease (Q9YQ12 whole entry): as the sequence (Q9YQ12 as listed by the source) above

| Ki [nM] | Structure (SMILES) |
| --- | --- |
| 1000 | C[C@@H]1Cc2ccccc2S(=O)(=O)N(CC(O)C(Cc2ccccc2)NC(=O)OC(C)(C)C)C1 (single isomer, unassigned) |
| 30 | C[C@H]1Cc2cc(F)ccc2S(=O)(=O)N(CC(O)C(Cc2ccccc2)NC(=O)[C@@H]2CN(c3ccccc3)C(=O)O2)C1 (single isomer, unassigned) |
| 19 | COc1ccc2c(c1)C[C@H](C)CN(C[C@@H](O)[C@H](Cc1ccccc1)NC(=O)OC(C)(C)C)S2(=O)=O |
| 470 | CC(C)(C)OC(=O)N[C@@H](Cc1ccccc1)[C@H](O)CN1CCCc2ccccc2S1(=O)=O |
| 29 | C[C@H]1Cc2ccccc2S(=O)(=O)N(CC(O)C(Cc2ccccc2)NC(=O)OC(C)(C)C)C1 (single isomer, unassigned) |
| 27 | C=CCOC(=O)N[C@@H](Cc1ccccc1)[C@H](O)CN1C[C@@H](C)Cc2ccccc2S1(=O)=O |
| 34 | CCOC(=O)NC(Cc1ccccc1)C(O)CN1C[C@@H](C)Cc2ccccc2S1(=O)=O (single isomer, unassigned) |
| 186 | C[C@H]1Cc2cc(C(F)(F)F)ccc2S(=O)(=O)N(C[C@@H](O)[C@H](Cc2ccccc2)NC(=O)OC(C)(C)C)C1 |
| 100 | C[C@H]1Cc2ccc(C(F)(F)F)cc2S(=O)(=O)N(C[C@@H](O)[C@H](Cc2ccccc2)NC(=O)OC(C)(C)C)C1 |

| Structure (SMILES) | Ki [nM] |
| --- | --- |
| C[C@H]1Cc2ccccc2S(=O)(=O)N(CC(O)C(Cc2ccccc2)NC(=O)Oc2ccccc2)C1 (single isomer, unassigned) | 350 |
